Source: US8507560B2, “Pharmaceutical compositions comprising 3,4-dihydroisoquinolin-2(1H)-yl-3-phenylurea derivatives having formyl peptide receptor like-1 (FPRL-1) agonist or antagonist activity” (Allergan, Inc., priority 2010, dated 2013)
pEC50: −log10 of the molar value.

Target: T1, FPRL-1 (Homo sapiens, UniProt P25090)
T1 construct: expressed in transfected cells
T1 sequence (P25090 1-351): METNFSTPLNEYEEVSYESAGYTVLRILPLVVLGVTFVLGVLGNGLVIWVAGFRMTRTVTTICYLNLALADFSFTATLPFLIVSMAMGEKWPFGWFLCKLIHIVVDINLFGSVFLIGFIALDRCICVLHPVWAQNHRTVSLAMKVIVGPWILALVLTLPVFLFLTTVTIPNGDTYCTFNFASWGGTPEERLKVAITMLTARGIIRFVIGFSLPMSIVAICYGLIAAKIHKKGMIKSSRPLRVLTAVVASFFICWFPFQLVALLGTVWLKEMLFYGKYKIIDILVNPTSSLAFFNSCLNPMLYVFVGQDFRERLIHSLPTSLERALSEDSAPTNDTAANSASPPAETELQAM
Experiment: FLIPR Tetra calcium activity assay in CHO-Ga16 cells stably expressing FPRL1
Assay type: cell-based
Settings: compound-induced calcium activity; for pEC50: 0.61 to 10,000 nM; for FPRL-1 Ga16-CHO (eff) efficacy: efficacy value in parentheses
Experimental: CHO-Ga16 cells stably expressing FPRL1 were cultured in (F12, 10% FBS, 1% PSA, 400 μg/ml geneticin and 50 μg/ml hygromycin) and HEK-Gqi5 cells stable expressing FPR1 were cultured in (DMEM high glucose, 10% FBS, 1% PSA, 400 μg/ml geneticin and 50 μg/ml hygromycin). In general, the day before the experiment, 18,000 cells/well were plated in a 384-well clear bottom poly-d-lysine coated plate. The following day the screening compound-induced calcium activity was assayed on the FLIPR^Tetra. The drug plates were prepared in 384-well microplates using the EP3 and the MultiPROBE robotic liquid handling systems. Compounds were tested at concentrations ranging from 0.61 to 10,000 nM. Results are expressed as EC50 (nM) and efficacy values.

Row | Structure (SMILES) | pEC50 | FPRL-1 Ga16-CHO (eff) efficacy
1 | COc1cc2c(cc1OC)CN(C(=O)C(CCCCNC(=O)c1ccco1)NC(=O)Nc1ccc(C)cc1)CC2 (centres unmarked) [Compound 1] | 6.84 | 0.61
2 | COc1cc2c(cc1OC)CN(C(=O)C(CCCCNC(=O)NC1CCCCC1)NC(=O)Nc1ccc(SC)cc1)CC2 (centres unmarked) [Compound 4] | 7.23 | 0.71
3 | COc1cc2c(cc1OC)CN(C(=O)C(CCCCNC(=O)Nc1ccccc1)NC(=O)Nc1ccc(SC)cc1)CC2 (centres unmarked) [Compound 3] | 7.49 | 0.76
4 | COc1cc2c(cc1OC)CN(C(=O)C(CCCCNC(=O)Nc1ccccc1)NC(=O)Nc1ccc(Br)cc1)CC2 (centres unmarked) [Compound 2] | 7.04 | 0.79
